Experimental findings from PMC12203697, “Bioactive constituents from the edible seaweed Halymenia hawaiiana (Rhodophyta)” (Pharmaceutical Biology, 2025) are described below.

Data set [1] can be described thus: Ferric-reducing antioxidant power (FRAP) assay. As to the method: The FRAP assay was used to evaluate antioxidant activity based on the ability of the sample to reduce Fe^3+-TPTZ (2,4,6-tris(2-pyridyl)-S-triazine) to Fe^2+-TPTZ (Benzie and Strain [1996]). This reduction results in a color change from colorless to blue. The absorbance was measured at 593 nm using a Microplate Reader (BioTek ELx800 Instruments Inc. Winooski, Vermont, USA) with the Gen 5 software for FRAP value calculations. A ferrous sulfate heptahydrate (FeSO4 · 7H2O) (Cat. No. 215422, Sigma-Aldrich, USA) standard curve, ranging from 1000 µM to 50 µM, was prepared for the assay. The FRAP reagent consists of 300 mM sodium acetate buffer (pH 3.6) (Cat. No. 90358, Sigma-Aldrich, USA), 10 mM TPTZ solution (Cat. No. T1253, Sigma-Aldrich, USA), and 20 mM ferric (III) chloride hexahydrate (FeCl3 · 6H2O) (Cat. No. 236489, Sigma-Aldrich, USA) in a 10:1:1 ratio, respectively, and heated to 37 °C for ten minutes before use. A blank was measured at 593 nm with 150 µL FRAP reagent added to each well of a 96-well microtiter plate. Samples (20 µL of each sample) (1, 0.5, 0.25 mg/mL) and ascorbic acid (Sigma-Aldrich, Cat. No. A4403) positive control (1 mg/mL) were added in triplicates. Reducing capacity was expressed by FRAP values in an µM FeSO4/µg sample unit.

The test system of data set [2] is RAW 264.7 cells. The experiment in a line: SRB cellular viability in RAW 264.7 cells. It is filed as cell-based, mouse. As to conditions: under the NO and ROS/RNS assay conditions. As to the method:
The nitrite concentration in the culture medium was measured to indicate nitric oxide (NO) production as previously described (Min et al. [2009]). The murine macrophage RAW 264.7 cell line was obtained from ATCC, Manassas, VA, USA, and maintained in Dulbecco’s modified Eagle’s medium supplemented with 10% heat-inactivated FBS (Cat. No. A5670801, Gibco BRL Co, Grand Island, NY, USA), penicillin G (100 units/mL) (Cat. No. P7794, Sigma-Aldrich, USA), streptomycin (100 µg/mL) (Cat. No. S9137, Sigma-Aldrich, USA), and L-glutamine (2 mM) (Cat. No. 25030081, Gibco BRL Co, Grand Island, NY, USA). In brief, RAW 264.7 cells were seeded at a density of 4 × 10^4 cells/well in phenol red-free media (Cat. No. 11835030, Gibco, USA) in a 96-well plate, and incubated in a humidified incubator with 5% CO2 at 37 °C for 24 hr. Following this, the cells were treated with increasing concentrations of samples ranging from 10–50 μg/mL for 4 hr, after which the cells were treated with 1 μg/mL LPS for 20 h. L-N-Monomethyl Arginine citrate (L-NMMA) (Cat. No. NC0190932, Cayman Chemical, Michigan, USA), a non-selective inhibitor of NOS, was used as positive control. The concentration of nitric oxide production was assessed using the Griess reagent, which consists of a 1:1 (v/v) mixture of 1% sulfanilamide (Cat No. A13001, Alfa Aesar, Massachusetts, USA) in H3PO4 and N-(1-naphthyl)ethylenediamine dihydrochloride (Cat. No. 102397, MP Biomedicals, USA). Absorbance was recorded with a microplate reader (SynergyMx, BioTeK, Winooski, VT, USA) at 540 nm. A standard curve was created using sodium nitrite (1–100 μM) (Cat. No. 44227, Alfa Aesar, Massachusetts, USA). […]
To measure the formation of intracellular ROS and RNS, we utilized the fluorogenic dye 2′,7′-dichlorodihydrofluorescein diacetate (Cat. No. 4091-99-0, H2DCF-DA, Abcam, Boston, MA, USA). […] The relative fluorescent intensity of the cells was measured using a fluorescence plate reader (Synergy H1, BioTeK, Winooski, VT, USA) with excitation/emission at 485 nm/535 nm. […]

Turning to `Nc1ccn([C@H]2C[C@H](O)[C@@H](CO)O2)c(=O)n1` [Compound 1, deoxycytidine], in data set [1] (µM FeSO4/µg sample), the “FRAP” value was determined as 0.41 ± 0.03 µM/µg.
As for `CC(C)CCC[C@@H](C)[C@H]1CC[C@H]2[C@@H]3CC=C4C[C@@H](O)CC[C@]4(C)[C@H]3CC[C@]12C` [Compound 9, cholesterol], the “cytotoxicity in RAW 264.7 cells (in words)” value (“cytotoxicity” for short) in data set [2] was “without inducing cytotoxicity”.
As for `CC(C)CCC[C@@H](C)[C@H]1CCC2[C@@]34C=C[C@]5(C[C@@H](O)CC[C@]5(C)C3CC[C@@]21C)OO4` (stereo partly drawn) [Compound 10, 7-dehydrochoresterol peroxide], the “FRAP” value in data set [1] (FeSO4 standard curve) worked out at 204.07 µM; in data set [1] (µM FeSO4/µg sample), 2.55 ± 0.02 µM/µg. Further, the “cytotoxicity” value in data set [2] is listed as “without inducing cytotoxicity”.
With `CC(C)CCC[C@@H](C)[C@H]1CCC2[C@]1(C)CC=C1[C@]23C=C[C@]2(C[C@@H](O)CC[C@]12C)OO3` (stereo partly drawn) [Compound 11, (3β-5α-8α)5,8-epidioxycholesta-6,9(1)-diene-3-ol], in data set [2], the “cytotoxicity” value is recorded as “without inducing cytotoxicity”.
